Measured values published in ChEMBL document CHEMBL4808216, “Gut-Restricted Selective Cyclooxygenase-2 (COX-2) Inhibitors for Chemoprevention of Colorectal Cancer” (J Med Chem, 2021).
In brackets after ≈: the same amount, converted by molar mass. Activity calls are given as the source filed them. The rule behind the calls is not given here.

What was measured:
HEK293 = test: Selectivity ratio of IC50 for COX1 (unknown origin) expressed in HEK293 TRex cells assessed as reduction in PGE2 production to IC50 for COX2 (unknown origin) expressed in HEK293 TRex cells assessed as reduction in PGE2 production; assay type: cell-based; details: Homo sapiens
[1] = Ratio of drug concentration in C57BL/6J mouse colon to plasma at 10 mg/kg, po measured after 4 hr by liquid chromatographic triple-quadrupole mass spectrometric method; assay type: ADME, organism-based; details: for Kp at 4 h: C57BL/6J, colon / plasma
[2] = target: T1, Prostaglandin G/H synthase 2 (Homo sapiens, UniProt P35354); test: Inhibition of COX2 (unknown origin) expressed in HEK293 TRex cells assessed as reduction in PGE2 production using arachidonic acid as substrate preincubated for 60 mins followed by substrate addition for 1 hr in presence of 10% FBS by RapidFire High-Throughput Mass Spectrometry; assay type: cell-based, HEK293-T-REx
T1 sequence (P35354 whole entry): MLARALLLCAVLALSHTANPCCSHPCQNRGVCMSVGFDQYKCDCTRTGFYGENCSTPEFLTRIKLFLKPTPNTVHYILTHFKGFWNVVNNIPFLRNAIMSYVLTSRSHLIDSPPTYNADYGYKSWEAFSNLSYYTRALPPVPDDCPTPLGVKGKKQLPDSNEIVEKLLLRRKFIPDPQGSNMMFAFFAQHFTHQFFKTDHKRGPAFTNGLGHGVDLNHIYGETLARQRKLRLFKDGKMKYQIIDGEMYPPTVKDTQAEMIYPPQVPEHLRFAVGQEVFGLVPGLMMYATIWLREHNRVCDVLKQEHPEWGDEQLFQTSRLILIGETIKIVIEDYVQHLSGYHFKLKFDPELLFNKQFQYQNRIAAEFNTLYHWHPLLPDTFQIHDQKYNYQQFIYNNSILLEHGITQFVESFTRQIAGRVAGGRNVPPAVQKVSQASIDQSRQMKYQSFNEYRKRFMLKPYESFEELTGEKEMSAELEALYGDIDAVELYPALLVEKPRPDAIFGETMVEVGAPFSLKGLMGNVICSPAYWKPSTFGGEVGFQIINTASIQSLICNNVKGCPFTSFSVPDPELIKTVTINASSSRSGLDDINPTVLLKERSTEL

[3] = Drug concentration in C57BL/6J mouse plasma at 10 mg/kg, po administered as cassette dose measured at 4 hrs by LC/MS/MS analysis; assay type: ADME, organism-based
[4] = target: T2, Prostaglandin G/H synthase 1 (Homo sapiens, UniProt P23219); test: Inhibition of COX1 (unknown origin) expressed in HEK293 TRex cells assessed as reduction in PGE2 production using arachidonic acid as substrate preincubated for 60 mins followed by substrate addition for 1 hr in presence of 10% FBS by RapidFire High-Throughput Mass Spectrometry; assay type: ADME, cell-based, HEK293-T-REx
T2 sequence (P23219 whole entry): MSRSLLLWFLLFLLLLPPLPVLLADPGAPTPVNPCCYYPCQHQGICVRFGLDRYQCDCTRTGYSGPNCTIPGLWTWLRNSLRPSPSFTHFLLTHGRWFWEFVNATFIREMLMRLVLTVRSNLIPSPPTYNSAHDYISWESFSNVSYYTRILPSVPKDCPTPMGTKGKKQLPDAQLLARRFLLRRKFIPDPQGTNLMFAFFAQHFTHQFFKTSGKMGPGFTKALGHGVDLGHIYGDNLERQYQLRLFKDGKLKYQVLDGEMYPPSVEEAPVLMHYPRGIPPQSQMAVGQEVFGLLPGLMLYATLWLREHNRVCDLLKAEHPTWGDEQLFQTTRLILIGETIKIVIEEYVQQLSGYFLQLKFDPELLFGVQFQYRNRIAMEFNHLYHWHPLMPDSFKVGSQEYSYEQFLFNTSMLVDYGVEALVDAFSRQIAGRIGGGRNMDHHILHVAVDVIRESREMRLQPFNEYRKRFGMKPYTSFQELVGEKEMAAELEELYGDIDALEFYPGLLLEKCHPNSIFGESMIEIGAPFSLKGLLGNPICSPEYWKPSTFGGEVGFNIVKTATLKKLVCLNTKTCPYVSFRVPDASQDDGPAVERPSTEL

[5] = Clearance in C57BL/6J mouse at 2 mg/kg, iv measured after 0.08 to 24 hrs; assay type: ADME, organism-based; details: in vivo, time 0.08-24 hrs
[6] = Drug concentration in C57BL/6J mouse colon at 10 mg/kg, po administered as cassette dose measured at 4 hrs by LC/MS/MS analysis; assay type: ADME, organism-based; details: read-out: Ct
[7] = Half life in C57BL/6J mouse at 2 mg/kg, iv measured after 0.08 to 24 hrs; assay type: ADME, organism-based; details: C57BL/6J, in vivo, time 0.08-24 hrs
Mus musculus [8] = test: Antitumor activity in C57BL/6J mouse model of spontaneous GI-tract tumor Apc-min assessed as reduction in total ileum polyp area at 300 mg/kg, po administered as suspension for 10 to 12 weeks; assay type: functional; details: time 10-12 weeks, read-out: TGI
[9] = Protein binding in human plasma assessed as unbound fraction; assay type: ADME, cell-free
[10] = Volume of distribution at steady state in C57BL/6J mouse at 2 mg/kg, iv measured after 0.08 to 24 hrs; assay type: ADME, organism-based; details: C57BL/6J, in vivo, time 0.08-24 hrs, read-out: Vdss
Mus musculus [11] = test: Chemo-protective activity in C57BL/6J mouse model of spontaneous GI-tract tumor Apc-min assessed as 18F-FDG uptake in ileum at 300 mg/kg, po incorporated into chow diet administered daily for 2 weeks and measured after 14 days by ex vivo PET imaging analysis relative to control; assay type: functional
[12] = Half life in human liver microsomes; assay type: ADME, Microsome
[13] = Half life in mouse hepatocytes; assay type: ADME, cell-based, Hepatocyte
[14] = Tmax in C57BL/6J mouse at 10 mg/kg, po administered as cassette dose measured at 4 hrs by liquid chromatographic triple-quadrupole mass spectrometric method; assay type: ADME, organism-based; details: in vivo
Mus musculus [15] = test: Antitumor activity in C57BL/6J mouse model of spontaneous GI-tract tumor Apc-min assessed as mouse survival at 100 mg/kg, po administered daily as suspension and measured at day 82 by Kaplan-Meier method; assay type: functional
[16] = Equilibrium solubility of compound in FASSIF at pH 6.5; assay type: physicochemical
[17] = Protein binding in human colon assessed as unbound fraction; assay type: ADME, tissue-based
[18] = Half life in mouse liver microsomes; assay type: ADME, Microsome
[19] = Drug concentration in C57BL/6J mouse portal vein plasma at 10 mg/kg, po administered as cassette dose measured at 4 hrs by LC/MS/MS analysis; assay type: ADME, organism-based
[20] = Half life in human hepatocytes; assay type: ADME, cell-based, Hepatocyte
[21] = target: T2, Prostaglandin G/H synthase 1; test: Inhibition of COX1 in human whole blood assessed as reduction in calcium ionophore-stimulated TXB2 production incubated for 1 hr by ELISA; assay type: tissue-based
[22] = target: T1, Prostaglandin G/H synthase 2; test: Inhibition of human recombinant COX-2 assessed as reduction in peroxidase activity using arachidonic acid as substrate preincubated for 60 mins followed by substrate addition for 2 secs by ADPH based fluorometric analysis
[23] = target: T3, Prostaglandin G/H synthase 2 (Mus musculus, UniProt Q05769); test: In vivo inhibition of COX2 in po dosed C57BL/6J mouse model of spontaneous GI-tract tumor Apc-min assessed as chemopreventive effect by measuring reduction in polyp area and relevant plasma exposures; assay type: functional, organism-based
T3 sequence (Q05769 whole entry): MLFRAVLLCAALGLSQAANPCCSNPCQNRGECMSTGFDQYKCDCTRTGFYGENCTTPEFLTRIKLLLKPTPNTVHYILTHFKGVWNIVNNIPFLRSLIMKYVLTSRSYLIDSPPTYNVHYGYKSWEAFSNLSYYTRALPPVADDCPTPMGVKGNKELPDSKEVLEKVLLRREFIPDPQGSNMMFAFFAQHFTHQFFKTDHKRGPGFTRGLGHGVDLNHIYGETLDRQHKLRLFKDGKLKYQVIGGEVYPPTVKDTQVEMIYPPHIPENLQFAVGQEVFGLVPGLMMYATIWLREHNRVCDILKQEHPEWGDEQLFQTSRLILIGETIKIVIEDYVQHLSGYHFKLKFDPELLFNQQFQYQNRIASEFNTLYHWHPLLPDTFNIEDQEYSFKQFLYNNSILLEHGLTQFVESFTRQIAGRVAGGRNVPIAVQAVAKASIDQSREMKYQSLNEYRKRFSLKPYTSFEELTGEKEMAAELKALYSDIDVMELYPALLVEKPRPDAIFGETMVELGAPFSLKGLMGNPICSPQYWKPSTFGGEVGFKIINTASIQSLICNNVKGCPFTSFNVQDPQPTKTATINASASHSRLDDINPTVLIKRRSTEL

[24] = target: T3, Prostaglandin G/H synthase 2; test: In vivo inhibition of COX2 in po dosed C57BL/6J mouse model of spontaneous GI-tract tumor Apc-min assessed as chemopreventive effect by measuring reduction in polyp area and relevant ileum exposures; assay type: functional, organism-based
[25] = target: T4, Prostaglandin G/H synthase 2 (Homo sapiens) (UniProt P35354)
T4 sequence (whole entry): T1 sequence (P35354 whole entry)
Description: Protein occupancy at human recombinant COX-2 assessed as dissociation half life

in vivo = details: C57BL/6J, mouse, colon / portal vein plasma, po, 10 mg/kg
Description: Ratio of drug concentration in C57BL/6J mouse colon to portal vein plasma at 10 mg/kg, po measured after 4 hr by liquid chromatographic triple-quadrupole mass spectrometric method

[26] = target: T1, Prostaglandin G/H synthase 2; test: Inhibition of human recombinant COX-2 using arachidonic acid as substrate preincubated for 60 mins followed by substrate addition for 2 secs by ADPH based fluorometric analysis
[27] = target: T1, Prostaglandin G/H synthase 2; test: Inhibition of COX2 in human whole blood assessed as reduction in LPS stimulated PGE2 production incubated for 1 hr by ELISA; assay type: tissue-based
Mus musculus [28] = test: Antitumor activity in C57BL/6J mouse model of spontaneous GI-tract tumor Apc-min assessed as reduction in total ileum polyp number at 30 to 300 mg/kg, po administered as suspension for 10 weeks; assay type: functional, organism-based; details: dose 30-300 mg/kg
Homo sapiens = organism: Homo sapiens; test: Selectivity ratio of IC50 for COX1 in human whole blood assessed as reduction in calcium ionophore-stimulated TXB2 production to IC50 for COX2 in human whole blood assessed as reduction in LPS stimulated PGE2 production; assay type: tissue-based
Mus musculus [29] = test: Antitumor activity in C57BL/6J mouse model of spontaneous GI-tract tumor Apc-min assessed as reduction in total ileum polyp area at 30 to 300 mg/kg, po administered as suspension for 10 weeks; assay type: functional, organism-based; details: dose 30-300 mg/kg
[30] = target: T2, Prostaglandin G/H synthase 1; test: Inhibition of human recombinant COX-1 assessed as reduction in peroxidase activity using arachidonic acid as substrate preincubated for 60 mins followed by substrate addition for 2 secs by ADPH based fluorometric analysis; assay type: ADME

SMILES	Ratio IC50 (HEK293)	Kp at 4 h [1]	IC50 [2] [µM]	concentration at 4 h [3] [ng/mL]	IC50 [4] [µM]	clearance [5] [mL/min/kg]	concentration at 4 h [6] [ng/g]	half-life [7] [min]	inhibition in vivo at 300 mg/kg (Mus musculus [8]) [%]	Vd [10] [L/kg]	Activity (Mus musculus [11]) [%]	half-life [12] [min]	half-life [13] [min]	Tmax [14] [min]	Survival (Mus musculus [15]) [days]	solubility thermodynamic [16] [µM]	fraction unbound [17]	half-life [18] [min]	concentration at 4 h [19] [ng/mL]	half-life [20] [min]	other results
CCCCOc1nc(-c2ccc(F)cc2)c(-c2ccc(S(C)(=O)=O)cc2)cc1CO	10	24.9	0.049	75.9	0.511	32.2	1940														
Cc1ccc(-c2cc(C(F)(F)F)nn2-c2ccc(S(N)(=O)=O)cc2)cc1 [CELECOXIB]				2550		10.5	9460	76.2	65.9	0.94	31.4	67.2	33.1	15	>82	134 (≈ 50.9 µg/mL)	0.0031	59.3	2150	57.4	Fu [9]: 0.3%
CC(C)(O)COc1nc(OCCCC(F)(F)F)c(CO)cc1-c1ccc(S(C)(=O)=O)cc1			0.078	3.8	21.8		16000		39.8						62.5	111 (≈ 52.8 µg/mL)	0.204		230		IC50 [21]: > 180 µM; Ratio ([1]; other tissue, 10 mg/kg, 4 h): 4473; fraction unbound [9]: 0.011; IC50 [22]: 0.36 µM; IC50 [23]: 0.0019 µM; IC50 [24]: 0.16 µM; T1/2 [25]: 1620 min; Kp at 4 h (in vivo): 77; Ki [26]: 0.012 µM; IC50 [27]: 0.345 µM; Activity (Mus musculus [28]): Active; Ratio (Homo sapiens): > 200; Activity (Mus musculus [29]): Active; IC50 [30]: > 50 µM
CCCCOc1nc(OCC2COC2)c(-c2ccc(S(C)(=O)=O)cc2)cc1CO	70	402	0.036	6.7	2.46	102	1870														
Cc1ccc(-c2ncc(Cl)cc2-c2ccc(S(C)(=O)=O)cc2)cn1 [ETORICOXIB]		1.5		36.4	> 50	41.3	55.7	46.8		1.27	43.5	> 184	29.2	15	>82	358 (≈ 128 µg/mL)		53.8	48.6	> 371	IC50 [21]: 93.8 µM; fraction unbound [9]: 0.114; T1/2 [25]: 366 min; Kp at 4 h (in vivo): 1.2; IC50 [30]: > 50 µM
